Measured values as given in patent US12257264B2, “Combination therapy for HIV with adenosine derivative and capsid inhibitors” (Brii Biosciences, Inc., priority 2021, dated 2025).

Test: Plasma exposures following IV infusion alone or in combination to Sprague-Dawley rats
Conditions: for concentration at 0.25 h: 0.250 hrs; for concentration at 0.5 h: 0.500 hrs
Protocol: The pharmacokinetics of EFdA and prodrug formula 4-A, as well as lenacapavir were studied in rats after IV infusion administration alone or in combination at a dose of 1.0 mg/kg each.
Formulations: The prodrugs and lenacapavir were formulated alone or in combination as solutions at 1.0 mg/mL each in 20% […], 10% Solutol aqueous solution within 0.5 hour prior to dose.
Dose Administration and Sample Collection: The in-life phase of this study was conducted at the WuXi Apptec (WuXi) at Shanghai, China in accordance with the WuXi Institutional Animal Care and Use Committee (IACUC) standard animal procedures along with the IACUC guidelines that are in compliance with the Animal Welfare Act, the Guide for the Care and Use of Laboratory Animals. and was approved by the IACUA Committee. Male Sprague-Dawley rats (0.262+/−0.019 kg) were used for the studies. Each drug was administered as a single dose by 30-min IV infusion (1 ml/kg) alone or in combination. Plasma samples were collected at 0 (pre-dose), 5, 10, 15 and 30 min, 1, 2, 4, 7, 12 and 24 h post-dose. Blood (approximately 0.1 mL) was processed immediately for plasma by centrifugation at 3,200 g at 4° C. for 10 min within half an hour of collection. Plasma samples were frozen and maintained at −70° C. until analyzed. To stabilize the prodrug at the sample collection and subsequent analysis, the following stabilizing reagents were added to the blood collection K2EDTA tubes on wet ice prior to sample collection: for each 100 mL of blood, 10 mL of premade inhibitor cocktail consists of 600 mM Citric Acid, 400 mM PMSF, 400 mM NaF, and 400 mM Dichlorvos.
Determination of EFdA and Prodrugs in plasma: Briefly, plasma (20 μL) was mixed with 100 l acetonitrile to precipitate protein. Consistent with sample collection procedure, the same cocktail protocol was also added to stabilize the prodrug in the standard and QC samples.
Bioanalysis: A Sciex API-6500 Plus triplequadrupole mass spectrometer coupled with a Waters Acquity UPLC system (Framingham, MA 01701) was used for quantitative analysis of plasma samples. The column was a Waters HSS T3 column (2.1×50 mm, 1.8 micrometer). The mobile phases used were: A, 0.1% formic acid in water; B, 0.1% formic acid in acetonitrile. For the analysis of EFdA and prodrugs in plasma, the flow rate was 0.6 mL/min with a total run time of 2.0 min. […] Detection of the prodrug and EFdA were achieved using positive ion electrospray mass spectroscopic mode using unit resolution mode. Multiple reaction monitoring (MRM) modes were used to quantify both prodrug and EFdA, e.g. the MRM transition for EFdA was 294.0-154.2 Da, and the transition for prodrug 4-A was 449.3-164.9 Da. For the analysis of lenacapavir in plasma, the flow rate was 0.7 mL/min with a total run time of 1.5 min. The HPLC gradient was initiated at 95% A/5% B for 0.50 min, followed by linear gradient increase to […] over the next 0.2 min; the gradient was subsequently maintained at 100% of mobile B over the next 0.7 min before ramping down to 95% mobile phase A within the following 0.1 min. Detection of lenacapavir was achieved using positive ion electrospray mass spectroscopic mode using unit resolution mode. Multiple reaction monitoring (MRM) modes were used to quantify lenacapavir, e.g. the MRM transition for lenacapavir was 968.1-869.4 Da. Peak areas were integrated by the Sciex program Analyst®, version 1.6.3, operating on a Windows 7 computer where concentrations were determined by a weighted (1/x2) linear regression of peak area ratios (peak area of EFdA/peak area of corresponding IS) versus the nominal concentrations of the plasma calibration standards. Calculations were performed on unrounded numbers. Overall, Analyst® determined the precision and accuracy for the calibration standards and QC samples.

[1] = male, Sprague-Dawley, rat, in vivo, 1 mg/kg, Lenacapavir Concentrations in Rat Plasma When Dosed Alone, Lenacapavir IV infusion 1.0 mg/kg alone, individual animals
[2] = male, Sprague-Dawley, rat, in vivo, 1 mg/kg, Lenacapavir Concentrations in Rat Plasma When Dosed Alone, Lenacapavir IV infusion 1.0 mg/kg alone, Mean
[3] = male, Sprague-Dawley, rat, in vivo, Lenacapavir Concentrations in Rat Plasma When Dosed with Prodrug formula 4-A, Lenacapavir IV infusion 1.0 mg/kg with Prodrug formula 4-A, Mean
[4] = male, Sprague-Dawley, rat, in vivo, iv, 1 mg/kg

Question: Which results are given for `CC(C)(C#Cc1ccc(-c2ccc(Cl)c3c(NS(C)(=O)=O)nn(CC(F)(F)F)c23)c([C@H](Cc2cc(F)cc(F)c2)NC(=O)Cn2nc(C(F)(F)F)c3c2C(F)(F)[C@@H]2C[C@H]32)n1)S(C)(=O)=O` [Lenacapavir, reference compound]?
Answer: concentration at 0.25 h [1]: 796 ng/mL; concentration at 0.5 h [2]: 789 ng/mL; concentration at 0.5 h [1]: 980 ng/mL; concentration at 1 h [2]: 222 ng/mL; concentration at 1 h [1]: 261 ng/mL; concentration at 2 h [2]: 150 ng/mL; concentration at 2 h [1]: 181 ng/mL; concentration at 4 h [2]: 156 ng/mL; concentration at 4 h [1]: 171 ng/mL; concentration at 7 h [2]: 138 ng/mL; concentration at 12 h [2]: 117 ng/mL; concentration at 12 h [1]: 145 ng/mL; concentration at 24 h [2]: 136 ng/mL; concentration at 24 h [1]: 141 ng/mL; concentration at 72 h [2]: 69.6 ng/mL; concentration at 0.083 h (male, Sprague-Dawley, rat, in vivo, Lenacapavir Concentrations in Rat Plasma When Dosed with Prodrug formula 4-A, Lenacapavir IV infusion 1.0 mg/kg with Prodrug formula 4-A, 0.0830 hrs, Mean): 413 ng/mL; concentration at 0.167 h (male, Sprague-Dawley, rat, in vivo, Lenacapavir Concentrations in Rat Plasma When Dosed with Prodrug formula 4-A, Lenacapavir IV infusion 1.0 mg/kg with Prodrug formula 4-A, 0.167 hrs, Mean): 507 ng/mL; concentration at 0.25 h [3]: 590 ng/mL; concentration at 0.5 h [3]: 645 ng/mL; concentration at 1 h [3]: 162 ng/mL; concentration at 2 h [3]: 127 ng/mL; concentration at 4 h [3]: 93.5 ng/mL; concentration at 7 h [3]: 93 ng/mL; concentration at 12 h [3]: 128 ng/mL; concentration at 24 h [3]: 133 ng/mL; concentration at 72 h [3]: 83.3 ng/mL; AUC [4]: 7980 ng·h/mL; Cmax [4]: 903 ng/mL; Pharmacokinetic profile of lenacapavir on co-administration of prodrugs, e.g. formula 4-A (rats, IV infusion): not affected
